# “And” between values parts separate entries of the source, which are not always exact repeats. Identical values can stand only once. Like-named read-outs stand apart in the source and are kept apart here.
# Assays:
# [1] = Lipophilicity determination by RP-HPLC (log k, log D); format: physicochemical; details: for log D6.5: RP-HPLC C18, MeOH 72 % / acetate-buffered saline pH 6.5; for log D7.4: RP-HPLC C18, MeOH 72 % / acetate-buffered saline pH 7.4; for log k (logarithm of the capacity factor): RP-HPLC C18, MeOH 72 % / water 28 %
# Excerpt: An HPLC system Agilent 1200 equipped with a DAD detector (Agilent, Santa Clara, CA, USA) was used. A chromatographic column Symmetry® C18 5 μm, 4.6×250 mm, part No. WAT054275 (Waters Corp., Milford, MA, USA) was used. The HPLC separation process was monitored and evaluated with EZChrom Elite software ver. 3.3.2 (Agilent). Isocratic elution by a mixture of MeOH p.a. (72 %) and H2O-HPLC Mili-Q grade (28 %) as a mobile phase was used for the determination of capacity factor k. Isocratic elution by a mixture of MeOH p.a. (72 %) and acetate-buffered saline (pH 7.4 and pH 6.5) (28 %) as a mobile phase was used for the determination of distribution coefficients expressed as D7.4 and D6.5. The total flow of the column was 1.0 mL min^-1, the injection volume was 20 μL, the column temperature was 40 °C, and the sample temperature was 10 °C. The detection wavelength of 210 nm was chosen. A KI methanolic solution was used to determine the dead times (tD). Retention times (tR) were measured in minutes. The capacity factors k were calculated according to the formula k = (tR–tD)/tD, where tR is the retention time of the solute, and tD is the dead time obtained using an unretained analyte. The distribution coefficients DpH were calculated according to the formula DpH = (tR–tD)/tD. Each experiment was repeated three times.
# The capacity factor and distribution coefficients were measured by RP-HPLC on a C18 column with methanol as an organic modifier of the mobile phase. In addition to the experimental lipophilicities, predicted log P values were also calculated using ACD/Percepta, see Table 1. […] The values of σ(Ar) are found in a wide range from 0.01 to 1.36, so the compounds contain substituents with both electron-donating and slightly electron-withdrawing properties.
# S. aureus ATCC 29213 = test: Antibacterial screening, broth microdilution MIC; format: cell-based; details: Staphylococcus aureus, ATCC29213; ATCC 29213, 24 h at 37 °C; read-out: MIC S. aureus
# MRSA 63718 = test: Antibacterial screening, broth microdilution MIC; format: cell-based, methicillin-resistant S. aureus; details: Staphylococcus aureus, read-out: MIC MRSA 63718
# MRSA SA 630 = test: Antibacterial screening, broth microdilution MIC; format: cell-based, methicillin-resistant S. aureus; details: Staphylococcus aureus, clinical isolate, 24 h at 37 °C, read-out: MIC MRSA SA 630
# MRSA SA 3202 = test: Antibacterial screening, broth microdilution MIC; format: cell-based, methicillin-resistant S. aureus; details: Staphylococcus aureus, clinical isolate, 24 h at 37 °C, read-out: MIC MRSA SA 3202
# [2] = tested on: Enterococcus faecalis ATCC 29212; test: Antibacterial screening, broth microdilution MIC; format: cell-based; details: read-out: MIC E. faecalis
# VRE 342B = test: Antibacterial screening, broth microdilution MIC; format: cell-based, vancomycin-resistant E. faecalis; details: Enterococcus, vanA isolate, 24 h at 37 °C, read-out: MIC VRE 342B
# VRE 725B = test: Antibacterial screening, broth microdilution MIC; format: cell-based, vancomycin-resistant E. faecalis; details: Enterococcus, vanA isolate, 24 h at 37 °C, read-out: MIC VRE 725B
# VRE 368 = test: Antibacterial screening, broth microdilution MIC; format: cell-based, vancomycin-resistant E. faecalis; details: Enterococcus, vanA isolate, 24 h at 37 °C, read-out: MIC VRE 368
# E. coli ATCC 25922 = test: Antibacterial screening, broth microdilution MIC; format: cell-based; details: Escherichia coli, ATCC25922; ATCC 25922, 24 h at 37 °C
# [3] = tested on: Mycobacterium tuberculosis ATCC 25177/H37Ra; test: Antimycobacterial screening, broth dilution MIC (Alamar blue); format: cell-based; details: 336 h, H37Ra, 14 days at 37 °C, Alamar blue, read-out: MIC M. tuberculosis
# Procedure: The evaluation of in vitro antimycobacterial activity of the compounds was performed against Mycobacterium tuberculosis ATCC 25177/H37Ra, Mycobacterium kansasii DSM 44162 and Mycobacterium smegmatis ATCC 700084.
# The broth dilution micro-method in Middlebrook 7H9 medium (Difco, Lawrence, KS, USA) supplemented with ADC Enrichment (Difco) was used to determine the minimum inhibitory concentration (MIC) as previously described. […] The final concentrations of the evaluated compounds, ranging from 256 to 0.125 μg mL^-1, were obtained by twofold serial dilution of the stock solution in a microtiter plate with a sterile medium. Bacterial inocula were prepared by transferring colonies from culture to sterile water. The plate was inoculated by tested microorganisms. The final concentration of bacterial cells was 1.5×10^6 for M. tuberculosis and 10^5 cells in a microtiter plate for other mycobacteria. Isoniazid and rifampicin (Sigma) were used as reference antimycobacterial drugs. Drug-free controls, sterility controls, and controls consisting of medium and DMSO alone were included. The plates were incubated for a defined time at an appropriate temperature (3 days at 37 °C for M. smegmatis, and 14 days at 37 °C for M. tuberculosis and M. kansasii). […] The MICs against M. tuberculosis were evaluated by Alamar blue (Oxoid). After incubation, 10 % of Alamar blue was added to each well, and the plate was incubated for 24 h. The MIC values were assessed as the lowest concentration of the tested compounds, which prevented changing blue resazurin to pink resorufin. The experiments were repeated three times. The minimum inhibitory concentrations (MICs) were defined as the lowest concentration of the compound at which no visible bacterial growth was observed. The MIC value is routinely and widely used in bacterial assays and is a standard detection limit according to the CLSI [60].
# [4] = tested on: Mycobacterium kansasii DSM 44162; test: Antimycobacterial screening, broth dilution MIC; format: cell-based; details: DSM44162, 336 h, read-out: MIC M. kansasii
# [5] = tested on: Mycobacterium smegmatis ATCC 700084; test: Antimycobacterial screening, broth dilution MIC; format: cell-based; details: Mycolicibacterium smegmatis, ATCC700084, 72 h, read-out: MIC M. smegmatis
# [6] = clinical isolate, 24 h at 37 °C
# [7] = ATCC29212, ATCC 29212, 24 h at 37 °C
SMILES,log D6.5 [1],log D7.4 [1],log k (logarithm of the capacity factor) [1],MIC (S. aureus ATCC 29213),MIC (MRSA 63718; [6]),MIC (MRSA SA 630),MIC (MRSA SA 3202),"MIC [2, 7]",MIC (VRE 342B),MIC (VRE 725B),MIC (VRE 368),MIC (E. coli ATCC 25922),MIC [3],"MIC ([4]; DSM 44162, 14 days at 37 °C)","MIC ([5]; ATCC 700084, 3 days at 37 °C)",MIC [4],"MIC ([2]; ATCC29212, 24 h)",MIC [5],MIC (MRSA 63718; 24 h)
"Cc1cc(C)c(NC(=O)c2c(O)ccc3ccccc23)c(C)c1 [Compound 14, 2-Hydroxy-N-(2,4,6-trimethylphenyl)naphthalene-1-carboxamide]",0.2629,0.2691,0.2539,838 µM,838 µM,838 µM,419 µM,838 µM,838 µM,838 µM,838 µM,838 µM,210 µM,838 µM,210 µM,–,–,–,–
"COc1ccc(C)cc1NC(=O)c1c(O)ccc2ccccc12 [Compound 15, 2-Hydroxy-N-(2-methoxy-5-methylphenyl)naphthalene-1-carboxamide]",0.4974,0.5012,0.4932,833 µM,833 µM,833 µM,833 µM,833 µM,833 µM,833 µM,833 µM,833 µM,416 µM,–,833 µM,833 µM,–,–,–
"COc1cccc(C)c1NC(=O)c1c(O)ccc2ccccc12 [Compound 16, 2-Hydroxy-N-(2-methoxy-6-methylphenyl)naphthalene-1-carboxamide]",0.0284,0.0382,0.0124,833 µM,833 µM,833 µM,833 µM,–,208 µM,833 µM,208 µM,833 µM,416 µM,–,–,833 µM,416 µM,416 µM,–
"COc1ccc(C)c(NC(=O)c2c(O)ccc3ccccc23)c1 [Compound 17, 2-Hydroxy-N-(5-methoxy-2-methylphenyl)naphthalene-1-carboxamide]",0.1047,0.1113,0.0892,104 µM,–,208 µM,208 µM,833 µM,833 µM,833 µM,833 µM,833 µM,416 µM,–,–,833 µM,–,416 µM,416 µM
"COc1ccc(Cl)c(NC(=O)c2c(O)ccc3ccccc23)c1 [Compound 18, N-(2-Chloro-5-methoxyphenyl)-2-hydroxynaphthalene-1-carboxamide]",0.4607,0.4593,0.46 and 0.4635,48.8 µM,195 µM,48.8 µM,97.6 µM,781 µM,781 µM,781 µM,781 µM,781 µM,391 µM,–,781 µM,391 µM,–,–,–
